This is an account of results in patent publication EP2678315B1, “(Pyridin-4-yl)benzylamides as allosteric modulators of alpha 7 nAChR” (Janssen Pharmaceutica, N.V., priority 2011, dated 2012).

Structures are written as SMILES. “And” between values parts separate entries of the source, which are not always exact repeats. Identical values can stand only once. Like-named read-outs stand apart in the source and are kept apart here.

For the test, the target named is T1, human alpha 7-wt nAChR (Homo sapiens, UniProt P36544).
T1 construct: expressed in transfected cells
T1 sequence (P36544 23-502): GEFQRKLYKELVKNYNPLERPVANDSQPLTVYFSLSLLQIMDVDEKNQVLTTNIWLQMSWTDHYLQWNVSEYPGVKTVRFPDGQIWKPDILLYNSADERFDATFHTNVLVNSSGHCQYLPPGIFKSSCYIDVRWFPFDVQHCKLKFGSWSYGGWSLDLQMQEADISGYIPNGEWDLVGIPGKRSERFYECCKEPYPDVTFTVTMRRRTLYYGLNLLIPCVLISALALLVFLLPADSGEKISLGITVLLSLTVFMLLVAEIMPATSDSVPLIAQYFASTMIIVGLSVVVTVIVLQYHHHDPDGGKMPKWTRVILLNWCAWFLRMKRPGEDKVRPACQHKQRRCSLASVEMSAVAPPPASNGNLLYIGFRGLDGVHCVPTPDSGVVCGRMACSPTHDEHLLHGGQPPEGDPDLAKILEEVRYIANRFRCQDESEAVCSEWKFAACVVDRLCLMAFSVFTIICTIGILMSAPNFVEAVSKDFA
Kind of test: Ca2+ flux imaging (FDSS) (protocol B). Format: cell-based. The note with it: for EC50: read-out: pEC50 (converted); for Emax: read-out: % Efficacy. On the procedure: Example D.1 : Ca^2+ flux imaging (FDSS) (protocol B)
• a) Assay buffer Hanks buffered saline solution (HBSS, Invitrogen, Belgium), supplemented with 10 mM HEPES (Invitrogen, Belgium), CaCl2 to a final concentration of 5 mM, 0.1 % Bovine serum albumin (Sigma-Aldrich NV, Belgium). • b) Calcium-sensitive dye - Fluo-4AM Fluo-4AM (Molecular Probes, USA) was dissolved in DMSO containing 10% Pluronic acid (Molecular Probes, USA) to give a stock solution which was diluted in assay buffer supplemented with 5 mM probenicid (Sigma, Aldrich NV, Belgium) to give a final concentration of 2 µM • c) 384-well plates Black-sided, transparent bottomed 384 well plates coated with poly-D-lysine, PDL pre-coated (Coming, Incorporated, USA) • d) Calcium flux measurement A Functional drug screening system (FDSS, Hamamatsu) was used to measure intracellular free-calcium flux signals.
Monolayers of human alpha 7-wt nAChR-expressing cells were grown in black-sided, transparent bottomed 384 well plates coated with PDL for 24 hours prior to loading with a fluorescent calcium indicator, fluo-4AM for up to 120 minutes.
PAM activity was detected in real time by applying the compounds to be tested to the loaded cells along with an alpha 7 nicotinic receptor agonist during constant monitoring of cellular fluorescence in a FDSS. Compounds giving peak fluorescent responses greater than the response due to agonist alone, were consideted to be alpha 7 nAChR PAMs. The alpha 7 nicotinic receptor agonist was choline, applied at a sub-maximal concentration of 100 µM. In a further setting of the present invention the compounds were applied prior to the alpha 7 nicotinic receptor agonist, in a particular 10 minutes prior to the agonist.
A control response to choline was calculated on each plate from the difference in peak in fluorescence in wells receiving either choline or assay buffer alone. Compounds of the present invention were tested at a concentration range from 0.01 µM to 30 µM. Compounds were considered to have an interesting activity when they potentiated the choline signal at least with 200 % when tested at a concentration of 30 µM (the efficacy of 100 µM choline was defined as 100% in the absence of a PAM). An EC50 (or pEC50) was determined as a concentration relating to half the maximal effect, when a clear sigmoidal curve with top plateau was obtained.
(Calcium flux is commonly read through the fluorescence of an indicator in the cells.)

Consider `Cc1cc(-c2ccc(N3C[C@@H](C)O[C@@H](C)C3)cc2CNC(=O)c2conc2C)ccn1` [Compound 12], for which the Emax was found to be 562%. Moreover, the EC50 (Ca2+ assay as described in D.1) was 166 nM.

Turning to `Cc1cc(-c2ccc(N3CCO[C@H](C(F)(F)F)C3)c(F)c2CNC(=O)CC2CCC2)cc(C)n1` [Compound 70], the EC50 (Ca2+ assay as described in D.1) was 115 nM.

For `Cc1cc(-c2ccc(C3C[C@@H](C)O[C@@H](C)C3)c(F)c2CNC(=O)CC2CC2)cc(C)n1` (relative stereo) [Compound 53], for the setting “Ca2+ assay as described in D.1”, the EC50 was 457 nM.

For `Cc1cc(-c2c(F)cc(N3C[C@@H](C)O[C@@H](C)C3)cc2CNC(=O)CC2CC2)cc(C)n1` [Compound 74], the Emax amounted to 508%. Besides, the EC50 (Ca2+ assay as described in D.1) is 11.2 nM.

With `Cc1cc(-c2ccc(N3CC4CCC(C3)O4)cc2CNC(=O)C(C)C)cc(C)n1` [Compound 129], the Emax came to 296%. Also, the EC50 (Ca2+ assay as described in D.1) was 724 nM.

Consider `Cc1cc(-c2ccc(N3CCO[C@@H](C(F)(F)F)C3)c(F)c2CNC(=O)C(C)C)cc(C)n1` [Compound 56], for which, where the note is “Ca2+ assay as described in D.1”, the EC50 is 155 nM.

For `Cc1cc(-c2ccc(N3C[C@H](C(F)(F)F)C[C@H](C(F)(F)F)C3)cc2CNC(=O)c2ccc(F)cc2C)cc(C)n1` [Compound 20], the Emax was 466%. Under “Ca2+ assay as described in D.1”, the EC50 is 11 nM.

For `Cc1cc(-c2c(F)cc(N3CCO[C@@H](C(F)(F)F)C3)cc2CNC(=O)CC(C)C)cc(C)n1` [Compound 101], the EC50 (Ca2+ assay as described in D.1) was less than 10 nM.

Regarding `Cc1cc(-c2ccc(N3C[C@@H](C)O[C@@H](C)C3)c(F)c2CNC(=O)c2ccc(F)cc2C)cc(C)n1` [Compound 40], under “Ca2+ assay as described in D.1”, the EC50 is 41.7 nM.

For `Cc1cc(-c2c(F)cc(N3CCCC(C(F)(F)F)C3)cc2CNC(=O)c2cc(C)on2)cc(C)n1` (centres unmarked) [Compound 94], the Emax worked out at 428%. Also, the EC50 (Ca2+ assay as described in D.1) was 195 nM.

For the compound `Cc1cc(-c2ccc(N3CCOCC3)cc2CNC(=O)CC2CC2)cc(C)n1` [Compound 24], the Emax was 466%. In addition, where the note is “Ca2+ assay as described in D.1”, the EC50 is 1780 nM.

As to `Cc1cc(-c2ccc(N3CCOCC3)cc2CNC(=O)C(C)C)ccn1` [Compound 140], the “% Efficacy” value (Ca2+ assay as described in D.1) is 495.5% and 591.6%.

Regarding `Cc1cc(-c2ccc(N3CCOCC3)cc2CNC(=O)c2cc(C)on2)ccn1` [Compound 142], the Emax (Ca2+ assay as described in D.1) worked out at 545%.

Regarding `Cc1cc(-c2ccc(N3CCOCC3)cc2CNC(=O)C2CC2)cc(C)n1` [Compound 30], the Emax (Ca2+ assay as described in D.1) was found to be 260%.

Take `Cc1cc(-c2ccc(C3C[C@@H](C)O[C@@H](C)C3)c(F)c2CNC(=O)CC2CCC2)cc(C)n1` (relative stereo) [Compound 60]: for the setting “Ca2+ assay as described in D.1”, the EC50 is 178 nM.

With `Cc1cc(-c2ccc(N3CCO[C@H](C(F)(F)F)C3)c(F)c2CNC(=O)c2conc2C)cc(C)n1` [Compound 66], the Emax was 649%. Besides, for the setting “Ca2+ assay as described in D.1”, the EC50 was 398 nM.

For `Cc1cc(-c2ccc(N3C[C@@H](C)O[C@@H](C)C3)c(F)c2CNC(=O)CC2CC2)cc(C)n1` [Compound 37], the EC50 (Ca2+ assay as described in D.1) was 295 nM.

Take `Cc1cc(-c2ccc(N3CCOCC3)cc2CNC(=O)c2ccc(F)cc2C)ccn1` [Compound 31]: the Emax was found to be 576%. Further, the EC50 (Ca2+ assay as described in D.1) was 479 nM.

Take `Cc1cc(-c2ccc(N3C[C@@H](C)O[C@@H](C)C3)cc2CNC(=O)c2ccc(F)cc2C)ccn1` [Compound 11]: the Emax was determined as 912%. Moreover, the EC50 (Ca2+ assay as described in D.1) is 9.33 nM.

Consider `Cc1cc(-c2ccc(N3CCO[C@H](C(F)(F)F)C3)c(F)c2CNC(=O)CC(C)C)cc(C)n1` [Compound 68], for which, under “Ca2+ assay as described in D.1”, the EC50 was 132 nM.

Consider `Cc1cc(-c2ccc(N3CCO[C@@H](C(F)(F)F)C3)c(F)c2CNC(=O)CC2CCC2)cc(C)n1` [Compound 71], for which, where the note is “Ca2+ assay as described in D.1”, the EC50 was 32.4 nM.

`Cc1cc(-c2ccc(N3C[C@H](C(F)(F)F)C[C@H](C(F)(F)F)C3)cc2CNC(=O)C(C)C)cc(C)n1` [Compound 23]: the Emax stood at 322%. Also, the EC50 (Ca2+ assay as described in D.1) was 15.8 nM.

Take `Cc1cc(-c2c(F)cc(N3C[C@@H](C)O[C@@H](C)C3)cc2CNC(=O)C(C)C)cc(C)n1` [Compound 78]: the Emax came to 707%. For the same compound, the EC50 (Ca2+ assay as described in D.1) was 21.9 nM.

On to `Cc1cc(-c2ccc(N3CCO[C@@H](C(F)(F)F)C3)c(F)c2CNC(=O)c2cc(C)on2)cc(C)n1` [Compound 57], for which the EC50 (Ca2+ assay as described in D.1) was 234 nM.
